Laboratory results as given in patent US20210395210A1, “INHIBITION OF BACTERIAL CHAPERONIN SYSTEMS” (THE TRUSTEES OF INDIANA UNIVERSITY, priority 2018, published 2021).
Where two headings read alike, the source gives them in different places.

Tests used:
human HSP60/10 = biological target: T1, human HSP60/10 (Homo sapiens, UniProt P10809); test: HSP60/10-mediated dMDH refolding assay; type: biochemical; conditions: human HSP60/10-dMDH refolding assay
T1 construct: octa-Histidine tag (TEV-cleavable) (N, cleaved yes); made in house; host or cells: HSP60 in E. coli Rosetta 2 (DE3); HSP10 in Rosetta 2 (DE3) pLysS
Experimental: Reagent preparation: For these assays, four primary reagent stocks were prepared: 1) GroEUES-dMDH or HSP60/10-dMDH binary complex stock; 2) ATP initiation stock; 3) EDTA quench stock; 4) MDH enzymatic assay stock. Denatured MDH (dMDH) was prepared by 2-fold dilution of MDH (5 mg/ml, soluble pig heart MDH from Roche, product #10127248001) with denaturant buffer (7 M guanidine-HCl, 200 mM Tris, pH 7.4, and 50 mM DTT). MDH was completely denatured by incubating at room temperature for 45 min. The binary complex solutions were prepared by slowly adding the dMDH stock to a stirring stock with GroEL (or HSP60) in folding buffer (50 mM Tris-HCl, pH 7.4, 50 mM KCl, 10 mM MgCl2, and 1 mM DTT), followed by addition of GroES (or HSP10). The binary complex stocks were prepared immediately prior to dispensing into the assay plates and had final protein concentrations of 83.3 nM GroEL (Mr 800 kDa) or HSP60 (Mr 400 kDa), 100 nM GroES or HSP10 (Mr 70 kDa), and 20 nM dMDH in folding buffer. For the ATP initiation stock, ATP solid was diluted into folding buffer to a final concentration of 2.5 mM. Quench solution contained 600 mM EDTA (pH 8.0). The MDH enzymatic assay stock consisted of 20 mM sodium mesoxalate and 2.4 mM NADH in reaction buffer (50 mM Tris-HCl, pH 7.4, 50 mM KCl, and 1 mM DTT).
Assay Protocol: First, 30 μL aliquots of the GroEL/ES-dMDH or HSP60/10-dMDH binary complex stocks were dispensed into clear, 384-well polystyrene plates. […] The chaperonin-mediated refolding cycles were initiated by addition of 20 μL of ATP stock (reagent concentrations during refolding cycle: 50 nM GroEL or HSP60, 60 nM GroES or HSP10, 12 nM dMDH, 1 mM ATP, and compounds of 100 μM to 46 nM, 3-fold dilution series). The refolding reactions were incubated at 37° C. […] Next, the assay was quenched by addition of 10 μL of the EDTA to final concentration of 100 mM. […] A340 nm measurements were recorded at 0.5 minutes (start point) and at successive time points until the amount of NADH consumed reached ˜90% (end point, generally between 20-35 minutes). The differences between the start and end point A340 values were used to calculate the % inhibition of the GroEL/ES or HSP60/10 machinery by the compounds. […] Results presented represent the averages of IC50 values obtained from at least quadriplicate (duplicate of duplicate) replicates.

[1] = test system: Drug sensitive Staphylococcus aureus (ATCC 25923); test: Bacterial proliferation assay, drug sensitive S. aureus; type: cell-based
Source text: (§1) Bacterial Strains: Enterococcus faecium—(Orla-Jensen) Schleifer and Kilpper-Balz strain NCTC 7171 (ATCC 19434); Drug sensitive Staphylococcus aureus—Rosenbranch strain Seattle 1945 (ATCC 25923); Methicillin resistant S. aureus (MRSA)—Rosenbach strain HPV107 (ATCC BAA-44); Klebsiella Pneumonia—(Schroeter) Trevisan strain NCTC 9633 (ATCC 13883); Acinetobacter baumannii—Bouvet and Grimont strain 2208 (ATCC 19606); Pseudomonas aeruginosa—(Schroeter) Migula strain NCTC 10332 (ATCC 10145); Enterobacter cloacae—E. cloacae, subsp. cloacae (Jordan) Hormaeche and Edwards strain CDC 442-68 (ATCC 13047).
(§2) Growth Media: All bacteria were grown in Brain Heart Infusion (BHI) broth/agar (Becton, Dickinson and Company). All liquid cultures were grown in BHI media supplemented with 25 mg/L Ca^2+ and 12.5 mg/L Mg^2+ to mimic free physiological concentrations of these cations. A 10 mg/mL Ca^2+ stock solution was prepared by dissolving 3.68 g of CaCl2.2H2O in 100 mL of deionized water, and a 10 mg/mL Mg^2+ stock solution was prepared by dissolving 8.36 g of MgCl2.6H2O in 100 mL deionized water. Both stock solutions were filter-sterilized using 0.2 μm pore size cellulose-acetate filters. 2.5 mL of the sterile 10 mg/mL Ca^2+ stock and 1.25 mL of the sterile 10 mg/mL Mg^2+ stock solutions were added per 1 L of autoclaved BHI medium to obtain 25 mg/L Ca^2+ and 12.5 mg/L Mg^2+ ions, respectively.
(§3) General Assay Protocol: Stock bacterial cultures were streaked onto BHI agar plates and grown overnight at 37° C. Fresh aliquots of broth were inoculated with single bacterial colonies and the cultures were grown overnight at 37° C. with shaking (240 rpm) in cation adjusted BHI media. The following morning, the overnight cultures were sub-cultured (1:5 dilution) into fresh aliquots of cation adjusted BHI media and grown at 37° C. for 1-2 hours with shaking. After 2 h, cultures were diluted into fresh media to achieve final OD600 readings of 0.017. Aliquots of these diluted cultures (30 μL) were added to clear, flat-bottom, 384-well polystyrene plates that were stamped with 0.5 μL of test compounds in 20 μL media. […] Plates were sealed with “Breathe Easy” oxygen permeable membranes (Diversified Biotech) and left to incubate at 37° C. without shaking (stagnant assay). OD600 nm readings were taken at either 6-8 h (S. aureus, MRSA, K. pneumonia, E. cloacae, and P. aeruginosa) or 24 h (E. faecium and A. baumannii). A second set of baseline control plates were prepared analogously, but without any bacteria added, to correct for possible compound absorbance and/or precipitation. Plates were then read at 600 nm using a Molecular Devices SpectraMax Plus384 microplate reader. […] Results presented represent the averages of EC50 values obtained from at quadriplicate (duplicate of duplicate) replicates.

[2] = test system: Enterobacter cloacae (ATCC 13047); test: Bacterial proliferation assay, E. cloacae; type: cell-based
Source text: as §1, §2, §3

in vitro = conditions: human
Experimental: HEK 293 cells were maintained in MEM medium (Corning Cellgro, 10-009 CV) supplemented with 10% FBS (Sigma, F2242). […] Cells at 80% confluence were harvested and diluted in growth medium, then 45 μL of the THLE-3 cells (1,500 cells/well) or HEK 293 cells (1,500 cells/well) were dispensed per well, and plates were sealed with “Breathe Easy” oxygen permeable membranes (Diversified Biotech) and incubated at 37° C., 5% CO2, for 24 h.

[3] = read-out: HSP60/10-dMDH Refolding IC50
[4] = log(IC50) ± standard deviation, read-out: HSP60/10-dMDH Refolding Assay log(IC50) (converted)
[5] = ATCC25923, OD600 at 6-8 h, read-out: Bacterial Proliferation EC50 S. aureus Sensitive
[6] = ATCC25923, log of EC50 (μM scale), with standard deviation, read-out: log(EC50) Bacterial Proliferation Assay S. aureus Sensitive (converted)
[7] = ATCC13047, OD600 at 6-8 h, read-out: Bacterial Proliferation EC50 E. cloacae
[8] = ATCC13047, log of EC50 (μM scale), with standard deviation, read-out: log(EC50) Bacterial Proliferation Assay E. cloacae (converted)
[9] = ATCC25923, read-out: Bacterial Proliferation EC50 S. aureus Sensitive
[10] = ATCC25923, read-out: log(EC50) Bacterial Proliferation Assay S. aureus Sensitive (converted)
[11] = ATCC13047, read-out: Bacterial Proliferation EC50 E. cloacae
[12] = ATCC13047, read-out: log(EC50) Bacterial Proliferation Assay E. cloacae (converted)

T1 sequence (P10809 27-573): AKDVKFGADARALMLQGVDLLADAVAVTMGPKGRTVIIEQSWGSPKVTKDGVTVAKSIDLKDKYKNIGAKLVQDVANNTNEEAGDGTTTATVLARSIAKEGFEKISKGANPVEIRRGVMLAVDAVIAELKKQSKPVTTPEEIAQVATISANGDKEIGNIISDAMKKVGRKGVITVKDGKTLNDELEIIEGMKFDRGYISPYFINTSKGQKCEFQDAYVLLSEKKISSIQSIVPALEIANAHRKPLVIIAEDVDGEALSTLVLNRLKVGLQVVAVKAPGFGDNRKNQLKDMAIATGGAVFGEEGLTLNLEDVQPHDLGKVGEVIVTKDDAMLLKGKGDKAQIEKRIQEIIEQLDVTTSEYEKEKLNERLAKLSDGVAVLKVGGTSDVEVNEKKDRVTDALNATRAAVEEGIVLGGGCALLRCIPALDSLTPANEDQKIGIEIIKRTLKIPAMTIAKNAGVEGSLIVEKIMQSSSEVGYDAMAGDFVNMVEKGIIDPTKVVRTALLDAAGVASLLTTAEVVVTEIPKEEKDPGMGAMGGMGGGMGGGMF

Row | SMILES | IC50 (human HSP60/10; [3]) | IC50 (human HSP60/10; [4]) | EC50 [1, 5] | EC50 [1, 6] | EC50 [2, 7] | EC50 [2, 8] | CC50 at 48 h (in vitro) | EC50 [1, 9] | EC50 [1, 10] | EC50 [2, 11] | EC50 [2, 12] | CC50 at 48 h (in vitro; THLE-3 liver cells)
1 | O=C(Nc1ccc(Sc2nc3ccccc3s2)c(Cl)c1)c1cccc(Br)c1 [Compound 18, N-(4-(Benzo[d]thiazol-2-ylthio)-3-chlorophenyl)-3-bromobenzamide] | > 100 µM | > 100 µM | > 100 µM | > 100 µM | > 100 µM | > 100 µM | 87.1 µM |  |  |  |  | 
2 | CO[C@H]1/C=C/O[C@@]2(C)Oc3c(C)c(O)c4c(O)c(c(/C=N/N5CCN(C)CC5)c(O)c4c3C2=O)NC(=O)/C(C)=C\C=C\[C@H](C)[C@H](O)[C@@H](C)[C@@H](O)[C@@H](C)[C@H](OC(C)=O)[C@@H]1C [Rifampicin, rifampicin, reference compound] | > 100 µM | > 100 µM | < 0.05 µM | < 0.0501 µM | 8.8 µM | 8.71 µM | 72.4 µM |  |  |  |  | 
3 | O=C(Nc1ccccc1)c1cc(Br)cc(Br)c1O [Compound 13, 3,5-Dibromo-2-hydroxy-N-phenylbenzamide] | 63 µM | 63.1 µM |  |  |  |  |  | 1.2 µM | 1.23 µM | > 100 µM | > 100 µM | 25.1 µM
4 | O=C(Nc1ccc(Oc2ccc(Cl)cc2)c(Cl)c1)c1cc(I)cc(I)c1O [Rafoxanide, rafoxanide, reference compound] |  |  |  |  |  |  | 24 µM | 0.32 µM | 0.324 µM | 40 µM | 40.7 µM | 
5 | COc1ccc(Br)cc1C(=O)Nc1cccc(Cl)c1 [Compound 39, 5-Bromo-N-(3-chlorophenyl)-2-methoxybenzamide] | > 100 µM | > 100 µM | > 100 µM | > 100 µM | > 100 µM | > 100 µM | 93.3 µM |  |  |  |  | 
6 | COc1c(Br)cc(Br)cc1C(=O)Nc1ccc(Sc2nc3ccccc3s2)c(Cl)c1 [Compound 29, N-(4-(Benzo[d]thiazol-2-ylthio)-3-chlorophenyl)-3,5-dibromo-2-methoxybenzamide] | > 100 µM | > 100 µM | > 100 µM | > 100 µM | > 100 µM | > 100 µM | > 100 µM |  |  |  |  | 
7 | O=C(Nc1cccc(Cl)c1)c1cccc(Br)c1 [Compound 24, 3-Bromo-N-(3-chlorophenyl)benzamide] | > 100 µM | > 100 µM | 47 µM | 46.8 µM | > 100 µM | > 100 µM | 50.1 µM |  |  |  |  | 
8 | COc1ccccc1C(=O)Nc1cccc(Cl)c1 [Compound 40, N-(3-Chlorophenyl)-2-methoxybenzamide] | > 100 µM | > 100 µM | > 100 µM | > 100 µM | > 100 µM | > 100 µM | > 100 µM |  |  |  |  | 
9 | COc1c(Br)cc(Br)cc1C(=O)Nc1ccc(Sc2nc3ccccc3s2)cc1 [Compound 33, N-(4-(Benzo[d]thiazol-2-ylthio)phenyl)-3,5-dibromo-2-methoxybenzamide] | > 100 µM | > 100 µM | > 100 µM | > 100 µM | > 100 µM | > 100 µM | > 100 µM |  |  |  |  | 
10 | CC1(C)S[C@@H]2[C@H](NC(=O)[C@H](N)c3ccccc3)C(=O)N2[C@H]1C(=O)O [Ampicillin, ampicillin, reference compound] | > 100 µM | > 100 µM | 0.19 µM | 0.195 µM | > 100 µM | > 100 µM |  |  |  |  |  | > 100 µM
11 | COc1c(Br)cccc1C(=O)Nc1ccc(Sc2nc3ccccc3s2)cc1 [Compound 34, N-(4-(Benzo[d]thiazol-2-ylthio)phenyl)-3-bromo-2-methoxybenzamide] | > 100 µM | > 100 µM | > 100 µM | > 100 µM | > 100 µM | > 100 µM | > 100 µM |  |  |  |  | 
12 | COc1ccc(Br)cc1C(=O)Nc1ccccc1 [Compound 43, 5-Bromo-2-methoxy-N-phenylbenzamide] | > 100 µM | > 100 µM | > 100 µM | > 100 µM | > 100 µM | > 100 µM | > 100 µM |  |  |  |  | 
13 | Cc1cc(C(C#N)c2ccc(Cl)cc2)c(Cl)cc1NC(=O)c1cc(I)cc(I)c1O (stereo not shown) [Closantel, closantel, reference compound] |  |  |  |  |  |  | 52.5 µM | 0.47 µM | 0.468 µM | > 100 µM | > 100 µM | 
14 | O=C(Nc1ccc(Sc2nc3ccccc3s2)cc1)c1cc(Br)cc(Br)c1 [Compound 20, N-(4-(Benzo[d]thiazol-2-ylthio)phenyl)-3,5-dibromobenzamide] | > 100 µM | > 100 µM | > 100 µM | > 100 µM | > 100 µM | > 100 µM | > 100 µM |  |  |  |  | 
